In PubChem BioAssay AID2060887 (Molecular Pharmacology Branch, DTP, NCI, 2025):
pIC50: −log10 of the molar value.

Test system: 782815-120-R-J1-PDC complex spheroid viability
Test: Anticancer human tumor 782815-120-R-J1-PDC patient-derived colon adenocarcinoma cell line growth inhibition [RAS]
Details: for pIC50: curve of first compound; for viability, T/C: stronger effect = lower value; active = viability on the fitted dose curve at most 10% of control; inactive = the rest
Description: RAS pathway inhibitors in Combinations in Complex Spheroids
A high-throughput screen of multi-cell type tumor spheroids was designed to identify active combinations of RAS pathway inhibitors and targeted small molecules. Complex spheroids include a stromal component modeled by human endothelial cells (HUVEC) and fibroblasts modeled by human mesenchymal stem cells (MSCs). The concentration ranges selected for each drug and investigational agent were based upon clinically achievable concentrations if the clinical Cmax of the agent was known.
Compounds. The drugs and investigational agents: abemaciclib (NSC768073), cobimetinib (NSC768068), divarasib (GDC6063, NSC841802), docetaxel (NSC628503), GDC-1971 (RLY-1971, NSC841576), gemcitabine (NSC613327), inavolisib (NSC800729), ipatasertib (NSC767898), KB-0742 (NSC834161), MRTX-1133 (NSC836407), osimertinib (NSC779217), RMC-4630 (NSC839698), RMC-6236 (NSC851965), RMC-6291 (NSC852671), Ro-3306 (NSC812927), sapanisertib (NSC764658), SN-38 (NSC673596), staurosporine (NSC755774), SY5609 (NSC837396), and tovorafenib (DAY101, NSC766906), were obtained from the National Cancer Institute (NCI) Developmental Therapeutics Program Chemical Repository. The FDA-approved anticancer drug set is available from the NCI Developmental Therapeutics Program. […] The stock solutions were prepared in dimethyl sulfoxide (DMSO, Sigma-Aldrich, St. Louis, MO, cat. D2650) at 800-fold the tested concentration and stored at -70 degrees C prior to their use. All drugs and investigational agents were tested over a range starting from a high concentration at or near the clinical Cmax and decreasing in half-log increments. If the clinical Cmax for an agent had not been determined, the highest concentration tested was 10 microM.
Cell Culture. All cells were maintained in an incubator at 37 degrees C and 5% CO2 with 95% humidity. The PDC lines were cultured according to standard operating procedures established by the NCI PDMR. All PDCs were thawed and cultured in Matrigel-coated flasks prepared with a working solution of 1X Ham's F-12 nutrient mix, without supplementation (Invitrogen, Waltham, MA, cat. 11765054), 100 U/mL penicillin-streptomycin (Invitrogen, cat. 15140122), and 2.5% Matrigel (Corning Inc., Corning, NY, cat. 354248) for the first three passages. The 362531-283-R-J2-PDC and 782815-120-R-J1-PDC lines were cultured in 6C/Colon 1B media, which includes advanced DMEM/F-12 (Thermo Fisher Scientific, cat. 12634028), 10 mM HEPES (Thermo Fisher Scientific, cat. 15630080), 1X GlutaMAX supplement (Thermo Fisher Scientific, cat. 35050061), 0.1 mg/mL primocin (InvivoGen, San Diego, CA, cat. ant-pm-2), 10% defined fetal bovine serum, heat inactivated (HyClone Laboratories Inc., Logan, UT, cat. SH30070.03HI), 50% L-WRN conditioned media (ATCC, cat. CRL-3276), 1.25 mM N-Acetyl-L-cysteine (Sigma-Aldrich, cat. A9165), 10 mM nicotinamide (Sigma-Aldrich, cat. N0636), 1X B-27 supplement (Thermo Fisher Scientific, cat. 17504044), 1X N-2 supplement (Thermo Fisher Scientific, cat. 17502048), 50 ng/mL human EGF (Thermo Fisher Scientific, cat. PHG0311), and 10 microM Y-27632 dihydrochloride (Tocris Bioscience, cat. 1254). The K12877-001-R-J1-PDC line was cultured in 6I media, which includes all 6C/Colon 1B media plus 10 ng/mL human FGF-10 (PeproTech, cat. 100-26), 1 ng/mL human FGF-2 (PeproTech, cat. 100-18B), 1 µM prostaglandin E2 (Tocris Bioscience, cat. 2296), […] hydrocortisone (Sigma-Aldrich, cat. H4001), and […] bovine insulin (Sigma-Aldrich, cat. I6634). The K86415-001-R-J1-PDC line was cultured in 6D media, which includes all 6C/Colon 1B media components minus the L-WRN conditioned media. The 485176-168-R4-J1-PDC was cultured in PANC media, which includes all 6C/Colon 1B media plus 100 ng/mL human FGF-10 (PeproTech, cat. 100-26), 500 nM SB-431542 (Selleckchem, cat. S1067), and 10 nM gastrin (Tocris Bioscience, cat. 3006). […]
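Note: spheroids exposed to compounds for 7 days before reading.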

CCC(CC)c1cc(NC2CCC(N)C2)n2nccc2n1 (configuration not stated) + C#Cc1c(F)ccc2cc(O)cc(-c3ncc4c(N5CC6CCC(C5)N6)nc(OCC56CCCN5CC(F)C6)nc4c3F)c12
inactive: viability, T/C (second compound 0.0316 µM, first compound 0.0316 µM) 93.3% | viability, T/C (second compound 0.0316 µM, first compound 0.1 µM) 90.7% | viability, T/C (second compound 0.0316 µM, first compound 0.316 µM) 99.4% | viability, T/C (second compound 0.0316 µM, first compound 1 µM) 100% | viability, T/C (second compound 0.0316 µM, first compound 3.16 µM) 38.2% | viability, T/C (second compound 0.1 µM, first compound 0.0316 µM) 99.2% | viability, T/C (second compound 0.1 µM, first compound 0.1 µM) 103% | viability, T/C (second compound 0.1 µM, first compound 0.316 µM) 96.9% | viability, T/C (second compound 0.1 µM, first compound 1 µM) 104% | viability, T/C (second compound 0.1 µM, first compound 3.16 µM) 40.3% | viability, T/C (second compound 0.316 µM, first compound 0.0316 µM) 105% | viability, T/C (second compound 0.316 µM, first compound 0.1 µM) 109% | viability, T/C (second compound 0.316 µM, first compound 0.316 µM) 103% | viability, T/C (second compound 0.316 µM, first compound 1 µM) 111% | viability, T/C (second compound 0.316 µM, first compound 3.16 µM) 43.7% | viability, T/C (second compound 1 µM, first compound 0.0316 µM) 96.3% | viability, T/C (second compound 1 µM, first compound 0.1 µM) 90.1% | viability, T/C (second compound 1 µM, first compound 0.316 µM) 101% | viability, T/C (second compound 1 µM, first compound 1 µM) 105% | viability, T/C (second compound 1 µM, first compound 3.16 µM) 34.4% | viability, T/C (second compound 3.16 µM, first compound 0.0316 µM) 104% | viability, T/C (second compound 3.16 µM, first compound 0.1 µM) 95% | viability, T/C (second compound 3.16 µM, first compound 0.316 µM) 91.2% | viability, T/C (second compound 3.16 µM, first compound 1 µM) 99% | viability, T/C (second compound 3.16 µM, first compound 3.16 µM) 39.3% | viability, T/C (second compound 10 µM, first compound 0.0316 µM) 106% | viability, T/C (second compound 10 µM, first compound 0.1 µM) 90.6% | viability, T/C (second compound 10 µM, first compound 0.316 µM) 92.2% | viability, T/C (second compound 10 µM, first compound 1 µM) 103% | viability, T/C (second compound 10 µM, first compound 3.16 µM) 33.7%
active: viability, T/C (second compound 0.0316 µM, first compound 10 µM) 1.67% | viability, T/C (second compound 0.1 µM, first compound 10 µM) 1.65% | viability, T/C (second compound 0.316 µM, first compound 10 µM) 2.09% | viability, T/C (second compound 1 µM, first compound 10 µM) 1.52% | viability, T/C (second compound 3.16 µM, first compound 10 µM) 1.84% | viability, T/C (second compound 10 µM, first compound 10 µM) 1.27%
5.63: pIC50 (second compound 10 µM)
5.59: pIC50 (second compound 3.16 µM)
5.55: pIC50 (second compound 0.316 µM)
5.58: pIC50 (second compound 0.1 µM)
5.60: pIC50 (second compound 0.0316 µM)
5.62: pIC50 (second compound 1 µM)
